For one assay, the system named is K. pneumoniae B 43 strain producing SHV and TEM ESBLs. The assay is described as follows: Cidal activity (bacterial count over time). It is filed as cell-based. As to conditions: Table 3; 2 hours; initial count 7.04 log CFU/ml; concentrations in label.
Take `C[C@@H](O)[C@H]1C(=O)N2C(C(=O)O)=C(SCCN=CN)C[C@H]12` [Imipenem, imipenem]: the Bacterial count came to 5.4 Log CFU/ml.

In turn, `CC1(C)S[C@@H]2[C@H](NC(=O)[C@H](N)c3ccc(O)cc3)C(=O)N2[C@H]1C(=O)O` [Amoxicillin, amoxicillin] registered a Bacterial count of 7.8 Log CFU/ml.

As for `CC1(C)S[C@@H]2[C@H](/N=C/N3CCCCCC3)C(=O)N2[C@H]1C(=O)O` [Mecillinam, mecillinam], the Bacterial count was determined as 7.74 Log CFU/ml.

Still in this assay, the particulars now being: Table 3; 6 hours; initial count 7.04 log CFU/ml; concentrations in label.
Turning to `C[C@@H](O)[C@H]1C(=O)N2C(C(=O)O)=C(SCCN=CN)C[C@H]12` [Imipenem, imipenem], the Bacterial count turned out to be 3.9 Log CFU/ml.

The compound `CC1(C)S[C@@H]2[C@H](NC(=O)[C@H](N)c3ccc(O)cc3)C(=O)N2[C@H]1C(=O)O` [Amoxicillin, amoxicillin] displayed a Bacterial count of 8.8 Log CFU/ml.

`CC1(C)S[C@@H]2[C@H](/N=C/N3CCCCCC3)C(=O)N2[C@H]1C(=O)O` [Mecillinam, mecillinam] had a Bacterial count of 8.69 Log CFU/ml.

Still in this assay, the particulars now being: Table 3; 8 hours; initial count 7.04 log CFU/ml; concentrations in label.
As for `C[C@@H](O)[C@H]1C(=O)N2C(C(=O)O)=C(SCCN=CN)C[C@H]12` [Imipenem, imipenem], the Bacterial count was found to be 3.8 Log CFU/ml.

As for `CC1(C)S[C@@H]2[C@H](NC(=O)[C@H](N)c3ccc(O)cc3)C(=O)N2[C@H]1C(=O)O` [Amoxicillin, amoxicillin], the Bacterial count is 9 Log CFU/ml.

`CC1(C)S[C@@H]2[C@H](/N=C/N3CCCCCC3)C(=O)N2[C@H]1C(=O)O` [Mecillinam, mecillinam] gave a Bacterial count of 8.89 Log CFU/ml.

Still in this assay, the particulars now being: Table 5; 2 hours; initial count log 7.43 CFU/ml; concentrations in label.
In turn, `C[C@@H](O)[C@H]1C(=O)N2C(C(=O)O)=C(SCCN=CN)C[C@H]12` [Imipenem, imipenem] registered a Bacterial count of 6.37 Log CFU/ml.

On to `CC1(C)S[C@@H]2[C@H](/N=C/N3CCCCCC3)C(=O)N2[C@H]1C(=O)O` [Mecillinam, mecillinam], for which the Bacterial count is 8.39 Log CFU/ml.

The assay is the same for the next values; noted with them: Table 5; 4 hours; initial count log 7.43 CFU/ml; concentrations in label.
As for `C[C@@H](O)[C@H]1C(=O)N2C(C(=O)O)=C(SCCN=CN)C[C@H]12` [Imipenem, imipenem], the Bacterial count worked out at 5.69 Log CFU/ml.

For the compound `CC1(C)S[C@@H]2[C@H](/N=C/N3CCCCCC3)C(=O)N2[C@H]1C(=O)O` [Mecillinam, mecillinam], the Bacterial count came out at 8.60 Log CFU/ml.

The same assay, now with this note: Table 5; 8 hours; initial count log 7.43 CFU/ml; concentrations in label.
Take `C[C@@H](O)[C@H]1C(=O)N2C(C(=O)O)=C(SCCN=CN)C[C@H]12` [Imipenem, imipenem]: the Bacterial count is given as 6.60 Log CFU/ml.

As to `CC1(C)S[C@@H]2[C@H](/N=C/N3CCCCCC3)C(=O)N2[C@H]1C(=O)O` [Mecillinam, mecillinam], the Bacterial count was 8.90 Log CFU/ml.

For a further assay, the system named is K. pneumoniae ATCC 700603 strain producing SHV 18 ESBL. The assay is described as follows: MIC by agar dilution (CLSI). It is filed as cell-based. Particulars: Klebsiella pneumoniae, ATCC700603; agent used alone; read-out: MIC value when used alone. The method, then:
The efficacy of compositions and methods in treating or controlling bacterial infections was studied. In a typical study, overnight grown bacterial cultures were diluted appropriately and inoculated on the agar media containing doubling dilutions of the antibiotic. Observation for growth or no growth was performed after 16-20 hours of incubation at 35±2° C. in ambient air. The overall procedure was performed as per Clinical and Laboratory Standards Institute (CLSI) recommendations (Clinical and Laboratory Standards Institute (CLSI), performance Standards for Antimicrobial Susceptibility Testing, 20th Informational Supplement, M 100-S20, Volume 30, No. 1, 2010).
For orientation: In agar dilution the substance is mixed into plates at graded concentrations.
For `CC1(C)S[C@@H]2[C@H](/N=C/N3CCCCCC3)C(=O)N2[C@H]1C(=O)O` [Mecillinam, mecillinam], the MIC – broadly, the lowest concentration found to suppress growth – is greater than 64 µg/mL.

Staying with this assay, now noted: Klebsiella pneumoniae, ATCC700603; amoxicillin alone or with fixed concentration of partner(s) named in the label; read-out: MIC of Amoxicillin.
Turning to `CC1(C)S[C@@H]2[C@H](NC(=O)[C@H](N)c3ccc(O)cc3)C(=O)N2[C@H]1C(=O)O` [Amoxicillin, amoxicillin], the minimal inhibitory concentration (MIC) is greater than 64 µg/mL.

A further assay has the same test system. The assay is described as follows: Cidal activity (bacterial count over time). It is filed as cell-based. As to conditions: Table 2; 2 hours; initial count 6.65 log CFU/ml; concentrations in label.
The compound `C[C@@H](O)[C@H]1C(=O)N2C(C(=O)O)=C(SCCN=CN)C[C@H]12` [Imipenem, imipenem] displayed a Bacterial count of 5.32 Log CFU/ml.

Take `CC1(C)S[C@@H]2[C@H](NC(=O)[C@H](N)c3ccc(O)cc3)C(=O)N2[C@H]1C(=O)O` [Amoxicillin, amoxicillin]: the Bacterial count was found to be 7.84 Log CFU/ml.

Consider `CC1(C)S[C@@H]2[C@H](/N=C/N3CCCCCC3)C(=O)N2[C@H]1C(=O)O` [Mecillinam, mecillinam], for which the Bacterial count came out at 7.47 Log CFU/ml.

Staying with this assay, now noted: Table 2; 6 hours; initial count 6.65 log CFU/ml; concentrations in label.
Consider `C[C@@H](O)[C@H]1C(=O)N2C(C(=O)O)=C(SCCN=CN)C[C@H]12` [Imipenem, imipenem], for which the Bacterial count came to 2.6 Log CFU/ml.

Compound `CC1(C)S[C@@H]2[C@H](NC(=O)[C@H](N)c3ccc(O)cc3)C(=O)N2[C@H]1C(=O)O` [Amoxicillin, amoxicillin] gave a Bacterial count of 8.5 Log CFU/ml.

In turn, `CC1(C)S[C@@H]2[C@H](/N=C/N3CCCCCC3)C(=O)N2[C@H]1C(=O)O` [Mecillinam, mecillinam] displayed a Bacterial count of 8.23 Log CFU/ml.

Staying with this assay, now noted: Table 2; 8 hours; initial count 6.65 log CFU/ml; concentrations in label.
`C[C@@H](O)[C@H]1C(=O)N2C(C(=O)O)=C(SCCN=CN)C[C@H]12` [Imipenem, imipenem] returned a Bacterial count of 2.0 Log CFU/ml.

With `CC1(C)S[C@@H]2[C@H](NC(=O)[C@H](N)c3ccc(O)cc3)C(=O)N2[C@H]1C(=O)O` [Amoxicillin, amoxicillin], the Bacterial count is 9 Log CFU/ml.

Turning to `CC1(C)S[C@@H]2[C@H](/N=C/N3CCCCCC3)C(=O)N2[C@H]1C(=O)O` [Mecillinam, mecillinam], the Bacterial count came to 9.1 Log CFU/ml.

Staying with this assay, now noted: Table 4; 2 hours; initial count 7.43 log CFU/ml; concentrations in label.
The compound `C[C@@H](O)[C@H]1C(=O)N2C(C(=O)O)=C(SCCN=CN)C[C@H]12` [Imipenem, imipenem] had a Bacterial count of 4.87 Log CFU/ml.

In turn, `CC1(C)S[C@@H]2[C@H](/N=C/N3CCCCCC3)C(=O)N2[C@H]1C(=O)O` [Mecillinam, mecillinam] yielded a Bacterial count of 7.95 Log CFU/ml.

The assay is the same for the next values; noted with them: Table 4; 4 hours; initial count 7.43 log CFU/ml; concentrations in label.
In turn, `C[C@@H](O)[C@H]1C(=O)N2C(C(=O)O)=C(SCCN=CN)C[C@H]12` [Imipenem, imipenem] had a Bacterial count of 3.39 Log CFU/ml.

`CC1(C)S[C@@H]2[C@H](/N=C/N3CCCCCC3)C(=O)N2[C@H]1C(=O)O` [Mecillinam, mecillinam] registered a Bacterial count of 8.33 Log CFU/ml.

The assay is the same for the next values; noted with them: Table 4; 8 hours; initial count 7.43 log CFU/ml; concentrations in label.
Compound `C[C@@H](O)[C@H]1C(=O)N2C(C(=O)O)=C(SCCN=CN)C[C@H]12` [Imipenem, imipenem] returned a Bacterial count of 2.84 Log CFU/ml.

Regarding `CC1(C)S[C@@H]2[C@H](/N=C/N3CCCCCC3)C(=O)N2[C@H]1C(=O)O` [Mecillinam, mecillinam], the Bacterial count is on record as 8.90 Log CFU/ml.

The assay is the same for the next values; noted with them: Table 6; 2 hours; initial count 7.27 log CFU/ml; concentrations in label.
`C[C@@H](O)[C@H]1C(=O)N2C(C(=O)O)=C(SCCN=CN)C[C@H]12` [Imipenem, imipenem] returned a Bacterial count of 5.32 Log CFU/ml.

`CC1(C)S[C@@H]2[C@H](/N=C/N3CCCCCC3)C(=O)N2[C@H]1C(=O)O` [Mecillinam, mecillinam] returned a Bacterial count of 8.23 Log CFU/ml.

Staying with this assay, now noted: Table 6; 4 hours; initial count 7.27 log CFU/ml; concentrations in label.
With `C[C@@H](O)[C@H]1C(=O)N2C(C(=O)O)=C(SCCN=CN)C[C@H]12` [Imipenem, imipenem], the Bacterial count is 3.84 Log CFU/ml.

`CC1(C)S[C@@H]2[C@H](/N=C/N3CCCCCC3)C(=O)N2[C@H]1C(=O)O` [Mecillinam, mecillinam]: the Bacterial count stood at 8.74 Log CFU/ml.

The same assay, now with this note: Table 6; 8 hours; initial count 7.27 log CFU/ml; concentrations in label.
`C[C@@H](O)[C@H]1C(=O)N2C(C(=O)O)=C(SCCN=CN)C[C@H]12` [Imipenem, imipenem] registered a Bacterial count of 2.32 Log CFU/ml.

`CC1(C)S[C@@H]2[C@H](/N=C/N3CCCCCC3)C(=O)N2[C@H]1C(=O)O` [Mecillinam, mecillinam] registered a Bacterial count of 9.47 Log CFU/ml.

The same assay, now with this note: Table 7; 2 hours; initial count 7.27 log CFU/ml; concentrations in label.
The compound `C[C@@H](O)[C@H]1C(=O)N2C(C(=O)O)=C(SCCN=CN)C[C@H]12` [Imipenem, imipenem] had a Bacterial count of 5.32 Log CFU/ml.

Take `CC1(C)S[C@@H]2[C@H](/N=C/N3CCCCCC3)C(=O)N2[C@H]1C(=O)O` [Mecillinam, mecillinam]: the Bacterial count was 8.23 Log CFU/ml.

Staying with this assay, now noted: Table 7; 4 hours; initial count 7.27 log CFU/ml; concentrations in label.
As to `C[C@@H](O)[C@H]1C(=O)N2C(C(=O)O)=C(SCCN=CN)C[C@H]12` [Imipenem, imipenem], the Bacterial count is given as 3.84 Log CFU/ml.

`CC1(C)S[C@@H]2[C@H](/N=C/N3CCCCCC3)C(=O)N2[C@H]1C(=O)O` [Mecillinam, mecillinam] yielded a Bacterial count of 8.74 Log CFU/ml.

Still in this assay, the particulars now being: Table 7; 8 hours; initial count 7.27 log CFU/ml; concentrations in label.
Turning to `C[C@@H](O)[C@H]1C(=O)N2C(C(=O)O)=C(SCCN=CN)C[C@H]12` [Imipenem, imipenem], the Bacterial count is listed as 2.32 Log CFU/ml.

Regarding `CC1(C)S[C@@H]2[C@H](/N=C/N3CCCCCC3)C(=O)N2[C@H]1C(=O)O` [Mecillinam, mecillinam], the Bacterial count is 9.47 Log CFU/ml.

Still in this assay, the particulars now being: drug alone; Table 2.
In the case of `CC1(C)S[C@@H]2[C@H](NC(=O)[C@H](N)c3ccc(O)cc3)C(=O)N2[C@H]1C(=O)O` [Amoxicillin, amoxicillin], the “antibacterial activity (growth in presence of drug alone)” value was “no antibacterial activity”.

In the case of `CC1(C)S[C@@H]2[C@H](/N=C/N3CCCCCC3)C(=O)N2[C@H]1C(=O)O` [Mecillinam, mecillinam], the “antibacterial activity (growth in presence of drug alone)” value is “no antibacterial activity”.

For the origin of these results see patent US20150258072A1, “Antibacterial compositions” (WOCKHARDT LIMITED, priority 2012, published 2015).
